# In US20060211705A1, “'N-(2-chloro-6-methylphenyl)-2-[[6-[4-(2-hydroxyethyl)-1-piperazinyl]-2-methyl-4-pyrimidinyl]amino]-5-thiazolecarboxamides metabolites” (priority 2005, published 2006):
# How the values were obtained:
# [1] = Metabolite profile of [14C] compound (I) in monkey hepatocyte incubations; assay type: in vitro ADME, cynomolgus monkey; settings: (Ia) 20 μM, 3 h, 37° C., ~2 million cells/mL; relative distribution in radiochromatographic profile
# Procedure: The compound of formula (I) was used as the [^14C] compound (Ia) (30.4 μCi/mg, radiochemical purity 99.2%), as the monohydrate of the free base. The C-14 label was on the carbon in the 2-position of the thiazole ring.
# Freshly isolated rat hepatocyte preparations were prepared from one male Sprague-Dawley rat. Rat Hepatocytes were prepared according to a standard procedure (Seglen, PO. Preparation of isolated rat liver cells. Methods Cell Biol., 1976, 13: 29-83). Cryopreserved cynomolgus monkey hepatocytes (male, pooled, n=6) and human hepatocytes (3 individual preparation) were purchased from In Vitro Technologies (Baltimore, Md.). Microsomes from male SD Rats (pooled, n=200, 20 mg/mL) and male cynomolgus monkeys (pooled, n=8, 20 mg/mL) were obtained from Xenotech LLC, Kansas City, Kans. Human liver microsomes (male, pooled, n=38) were from BD-Gentest, Woburn, Mass.
# A 6 mM stock solution of the compound of formula (Ia) (the [^14C] of the compound of formula (I) was prepared at by dissolving 3.7 mg of the compound of formula (Ia) into 1:1 acetonitrile/DMSO. The 2 mM stock solution of the compound of formula (Ia) was obtained by diluting an aliquot of the 6 mM stock solution 3-fold with acetonitrile.
# Human (3 vials from 3 individuals) and monkey cryopreserved hepatocytes were thawed according to the procedure provided by In Vitro Technologies. Briefly, the caps of the cryovials were loosened to release any trapped liquid nitrogen and kept on ice for 2 min. The caps were tightened and the vials were immersed in a 37° C. water bath for 75-90 sec with gentle shaking. The thawed samples (3 cryovials/[…] for each 50 mL tube) were transferred into 25 mL pre-warmed Krebs-Henseleit buffer in a 50 mL tube and gently inverted. The suspensions were evenly divided into 2 tubes and diluted to 40 mL with pre-warmed Krebs-Henseleit buffer. The tubes were centrifuged in an Eppendorf 5810R centrifuge (Hamburg, Germany) at 200 rpm at 4° C. for 10 min. The supernatant was discarded and the pellet gently suspended in 2 mL of Krebs-Henseleit buffer. All the tubes were combined into one tube, rinsing the empty tubes with 1 mL Krebs-Henseleit buffer. The cells were counted, checked for viability and diluted accordingly with modified Krebs-Henseleit buffer to give a final concentration of 2 million viable cells/mL.
# Viability of the hepatocytes was checked using a Trypan Blue exclusion assay and a hemocytometer. A mixture of 0.1 mL of the hepatocyte suspension and 0.1 mL of trypan blue solution were diluted with 0.8 mL of Krebs-Henseleit buffer. The solution was gently mixed and plated onto a Levy hemocytometer (Hausser Scientific) and the viable cells (unstained) were counted under a light microscope. The viability of the hepatocytes ranged from 77% to 90% at the beginning of the incubations.
# Hepatocyte incubations were conducted at 37° C. for 3 h in a NAPCO CO2 6000 incubator (VWR Scientific Products) under a 5% CO2 atmosphere using an orbital shaker at 90 rpm. For each incubation, the final concentration of compound (Ia) was 20 μM and the hepatocyte concentrations were ˜2 million cells/mL. A control incubation, in the absence of hepatocytes, was also performed for 3 h. The incubations were stopped by adding one volume of ice-cold acetonitrile. Each 0.5 mL incubation contained 0.1 M potassium phosphate buffer (pH 7.4), 2.5 mM MgCl2, 2 mg/mL microsomal protein, and 2.0 mM NADPH. The final substrate concentration was 20 μM. The mixtures were incubated in a shaking water bath at 37° C. for 15 min. Control incubations in the absence of microsomes or NADPH were performed for each species. The reactions were stopped with the addition of 1 mL of ice-cold acetonitrile.
# HPLC was performed on a Waters Alliance™ system equipped with Waters 2695 pumps and a photodiode array detector (Waters 2996). A Phenomenex Synergy Polar-RP® column (4.6×250 mm, 5 micron) was used for metabolite separation. […]
# [2] = In vivo metabolism of compound of formula I in bile duct cannulated rats by LC/UV/MSn; set-up: species or system rat; settings: BDC rats; for Relative abundance in gastrointestinal samples from rats dosed orally: 10 mg/kg oral, GIT at 9 hour; for Relative abundance in rat bile / Relative abundance in rat urine: 10 mg/kg; for Relative abundance in rat bile: bile over 9 hour; for Relative abundance in rat urine: urine over 9 hour
# Procedure: The in vivo metabolism of compound of formula I was investigated in bile duct cannulated rats (n=2), following a single dose of 10 mg/kg either intravenously (IV) as a 10 minute infusion or orally by gavage. The vehicle used was 50 mM sodium acetate buffer, pH 4.6. The rats were fasted overnight and for the duration of the study. Urine and bile were collected over a 9 hour period. The gastrointestinal tract (GIT) and feces were collected at the end of the 9 hour study period. GIT and feces were homogenized with 3 volumes of water and 3 volumes of acetonitrile per volume of GIT/feces. Blood samples were collected at 15, 30 minutes, 1, 2, 4, 6 and 9 hours after intravenous and oral dosing in tubes containing EDTA and plasma was prepared by centrifugation. Samples were stored at −20° C. until analysis.
# Plasma samples were pooled across collection intervals and treated with two volumes of acetonitrile. After centrifugation, the supernatent was removed and evaporated to dryness. The residues were then redissolved in 300 μl of methanol:water (1:1). Bile and urine samples from the BDC rat study were pooled across collection intervals. Bile samples were purified by sep-pak purification on C8 cartridges. The samples were evaporated and the residue was redissolved in 300 μl of methanol:water (1:1). Urine samples were diluted one to one with methanol and analyzed without further purification. All samples were analyzed by LC/UV/MS^n.
# The HPLC system consisted of Waters alliance 2690 separation module. The column used was a Phenomenex Curosil PFP, 4.6 mm×150 mm, 5 μ particles with a flow rate of 1.0 mL/min. The mobile phase consisted of 95/5 v/v Water/Methanol containing 0.1% formic acid (Solvent A) and Methanol (Solvent B). The initial mobile phase composition was 20% Solvent B. After sample injection, this composition was held for 0.5 minute at initial conditions then ramped to 80% solvent B up to 24.5 min, and ramped to 100% solvent B up to 28 minutes. The mobile phase was then returned to initial conditions and the column re-equilibrated for 5 minutes. Total analysis time was 33 minutes.
# The HPLC was interfaced to a Finnigan's Photo Diode Array Detector (PDA: UV6000) in tandem with Finnigan Deca XP ion trap mass spectrometer. Deca XP mass spectrometer was equipped with an Electrospray ionization source (ESI) interface. The source was operated in a positive ion mode with capillary temperature of 350° C. and source voltage 5.0 kV. The UV profile was extracted at […] of 254 nm. UHP (Ultra High Purity) nitrogen was used as sheath and auxiliary gas. The normalized collision energy was set at 50% and the isolation width was 3.0 amu. Multiple MS experiments were performed in a single chromatographic run with the following data dependent settings: […]
"% of Radioactivity in Hepatocytes, Monkey [1]",Relative abundance in gastrointestinal samples from rats dosed orally [2],Relative abundance in rat bile [2],Relative abundance in rat urine [2],"Relative abundance in rat plasma ([2]; 10 mg/kg IV or oral, pooled plasma, LC/UV/MSn)",Structure (SMILES)
3.7%,trace amounts,,,,Cc1nc(Nc2ncc(C(=O)Nc3c(C)cccc3Cl)s2)cc(N2CCNCC2)n1 [M4 (II)]
3.2%,,major metabolites,major metabolite,,Cc1nc(Nc2ncc(C(=O)Nc3c(C)cccc3Cl)s2)cc(N2CC[N+]([O-])(CCO)CC2)n1 [M5 (III)]
6.5%,trace amounts,major metabolites,,,"Cc1nc(Nc2ncc(C(=O)Nc3c(C)cccc3Cl)s2)cc(N2CCN(CC(=O)O)CC2)n1 [M6 (IV), 2-(4-(6-(5-((2-Chloro-6-methylphenyl)carbamoyl)thiazol-2-ylamino)-2-methylpyrimidin-4-yl)piperazin-1-yl)acetic acid]"
4.5%,,,,,Cc1nc(Nc2ncc(C(=O)Nc3c(C)cc(O)cc3Cl)s2)cc(N2CCN(CCO)CC2)n1 [M20 (V)]
4.5%,,,,,"Cc1nc(Nc2ncc(C(=O)Nc3c(Cl)cccc3CO)s2)cc(N2CCN(CCO)CC2)n1 [M24 (VI), N-(2-chloro-6-(hydroxymethyl)phenyl)-2-(6-(4-(2-hydroxyethyl)piperazin-1-yl)-2-methylpyrimidin-4-ylamino)thiazole-5-carboxamide]"
61.2%,major drug related peak,,trace amounts,major peak,"Cc1nc(Nc2ncc(C(=O)Nc3c(C)cccc3Cl)s2)cc(N2CCN(CCO)CC2)n1 [Parent (I), N-(2-Chloro-6-methylphenyl)-2-[[6-[4-(2-hydroxyethyl)-1-piperazinyl]-2-methyl-4-pyrimidinyl]amino]-5-thiazolecarboxamide]"
